Measurements: the SangsterLogP compilation

Experiment: method code SF-HPLC, from DOI: 10.1002/jps.2600810814, PMID: 1403725

| SMILES | logP |
| --- | --- |
| CCCCN(C)N=O | 1.12 |
| CCN(CC)N=O | 0.61 |
| CN(C)N=O | -0.38 |
| CC(C)N(N=O)C(C)C | 1.48 |
| CCN(C)N=O | 0.08 |
| CCCCCN(CCCCC)N=O | 3.91 |
| CCCCN(CC)N=O | 1.67 |
| CCCN(CCC)N=O | 1.61 |
| CCN(N=O)C(C)C | 1 |
| CC(C)CN(CC(C)C)N=O | 2.39 |
| CCCCN(CCCC)N=O | 2.73 |
| CN(N=O)C(C)(C)C | 0.86 |
| CCCN(C)N=O | 0.61 |
| CCCCN(CCC)N=O | 2.13 |
